According to patent publication EP0276583A1, “Imidazole derivatives, processes for their preparation and their fungicidal properties” (Instituto de Investigacion Y Desarrollo Quimico Biologico …, priority 1987, dated 1988):

How the values were obtained:
souris Swiss = assay: Acute oral toxicity in mice (Lichfield and Wilcoxon method); type: in vivo; conditions: mortality over 7 days
Excerpt: La toxicité aiguë des composés de l'invention a été déterminée par voie orale chez les souris Swiss des deux sexes, par la méthode de Lichfield et Wilcoxon. Des groupes de cinq souris de chaque sexe ont été traités par des doses croissantes du composé étudié et le taux de mortalité a été déterminé au cours des 7 jours suivant l'administration du produit.
On a trouvé les doses léthales (DL₅₀ en mg/kg) suivantes : […]

[1] = Solubility of the product in solvents; type: physicochemical; conditions: free base (oily product)
[2] = in benzène, éthanol, acétone, chloroforme
[3] = in eau, n-hexane, éther isopropylique, éther éthylique

SMILES	DL₅₀ (souris Swiss; souris femelle)	DL₅₀ (souris Swiss; souris mâle)	solubilité [1, 2]	solubilité [1, 3]
Brc1ccc(C(Cn2ccnc2)c2ccccc2)cc1 (centres unmarked) [Exemple 1, 1-[2-(4-bromophényl)-2-phényléthyl]-1H-imidazole]	375 (350-400) mg/kg	450 (400-475) mg/kg	soluble	insoluble
Fc1ccc(C(Cn2ccnc2)c2ccccc2)cc1 (centres unmarked) [Exemple 2, 1-[2-(4-fluorophényl)-2-phényl éthyl]-1H-imidazole]	465 (438-502) mg/kg	524 (457-538) mg/kg	soluble	insoluble
